Series [1] has as its target Mitogen-activated protein kinase; ERK1/ERK2 (Homo sapiens, UniProt P27361+P28482). As to the kind of experiment: Inhibition of ERK1/2 phosphorylation in human PANC-1 cells incubated for 3 hrs. Type of series: cell-based.
The nature of series [2]: Oral bioavailability in Balb/c mouse at 30 mg/kg measured for 24 hrs by UPLC-MS/MS analysis. Type of series: ADME, organism-based. Particulars: in vivo.
Series [3] is described as follows: Drug absorption in Balb/c mouse assessed as fraction of drug absorbed into portal vein at 1 mg/kg, […] measured for 24 hrs by UPLC-MS/MS analysis. The class given is ADME, organism-based. The note with it: in vivo.

Consider `C#Cc1c(F)ccc2cccc(-c3nc4c5c(nc(OC[C@@]67CCCN6C[C@H](F)C7)nc5c3F)N3CC5CCC(N5)C3CO4)c12` (some centres undefined), for which, in series [1], the IC50 was determined as 9 nM.

As for `Oc1cc(Cl)c(C2CC2)c(-c2nc3c4c(nc(OC[C@@]56CCCN5C[C@H](F)C6)nc4c2F)N2CC4CCC(N4)C2CO3)c1` (some centres undefined), the IC50 in series [1] was 7 nM. `C#Cc1c(F)ccc2cccc(-c3nc4c5c(nc(OC[C@@]67CCCN6C[C@H](F)C7)nc5c3F)N3C[C@H]5CC[C@H](N5)[C@H]3CO4)c12` registered an IC50 in series [1] of 2 nM. The same compound gave a bioavailability in series [2] of 37.7%. The FaFg in series [3] was determined as 54%. In turn, `C#Cc1c(F)ccc2cc(O)cc(-c3ncc4c(N5C[C@H]6CC[C@@H](C5)N6)nc(OC[C@@]56CCCN5C[C@H](F)C6)nc4c3F)c12` [MRTX-1133] displayed an IC50 in series [1] of 2.3 nM. Also, in series [2], the bioavailability is 0.66%. In series [3], the FaFg was 0.95%. For `Oc1cc(-c2nc3c4c(nc(OC[C@@]56CCCN5C[C@H](F)C6)nc4c2F)N2C[C@H]4CC[C@H](N4)[C@H]2CO3)c2c(Cl)cccc2c1`, the IC50 in series [1] was 5 nM. Compound `C#Cc1cccc2cccc(-c3nc4c5c(nc(OC[C@@]67CCCN6C[C@H](F)C7)nc5c3F)N3C[C@H]5CC[C@H](N5)[C@H]3CO4)c12` displayed an IC50 in series [1] of 10 nM. Moreover, in series [2], the bioavailability stood at 39.2%. Further, in series [3], the FaFg was 56.6%.

`Oc1cc(-c2nc3c4c(nc(OC[C@@]56CCCN5C[C@H](F)C6)nc4c2F)N2CC4CCC(N4)C2CO3)c2c(Cl)cccc2c1` (some centres undefined) returned an IC50 in series [1] of 33 nM. In turn, `CCc1c(F)ccc2cc(O)cc(-c3nc4c5c(nc(OC[C@@]67CCCN6C[C@H](F)C7)nc5c3F)N3C[C@H]5CC[C@H](N5)[C@H]3CO4)c12` came in with an IC50 in series [1] of 0.76 nM.

A word on the IC50: it is the concentration at which inhibition is half-maximal. A high value points to lower potency. A word on the bioavailability: it is dose-corrected exposure relative to a reference, in per cent.
